Experimental data: paper PMC8185805, “An improved method for the incorporation of fluoromethyl ketones into solid phase peptide synthesis techniques” (RSC Advances, 2021)
*: point of attachment. Cbz = O=C(OCc1ccccc1)*; CH2F = FC*

System: 3CL^pro of SARS-CoV-2
Details: pH 7.6

Substance: Cbz-SAVLD(OMe)-CH2F [compound 15]
- 3CL^pro protease activity in the presence of PFMK inhibitor (gel-based cleavage of FLAG-His-SAVLQ-nsp9): completely abolished
